Measured values: PubChem BioAssay AID1963833 (Molecular Pharmacology Branch, DTP, NCI, 2024)

System: 883617-216-R-J1-PDC complex spheroid viability
Assay: Anticancer human tumor 883617-216-R-J1-PDC patient-derived bladder carcinoma cell line growth inhibition [POLQ]
Conditions: for IC50: curve of first compound; for viability, T/C: stronger effect = lower value
In short: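 Patient-derived tumour cells were co-cultured with HUVEC and mesenchymal stem cells as multicellular spheroids at 37 °C. They were treated with POLQ inhibitors (novobiocin, ART-558, RP6685) alone or combined with other agents. Top concentrations were at or near clinical Cmax (otherwise 10 microM; SN-38 at 1 microM), decreasing in half-log steps.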

[1] = second compound 0.0316 µM, first compound 0.0316 µM
[2] = second compound 0.0316 µM, first compound 0.1 µM
[3] = second compound 0.1 µM, first compound 0.0316 µM
[4] = second compound 0.1 µM, first compound 0.1 µM
[5] = second compound 0.316 µM, first compound 0.0316 µM
[6] = second compound 0.316 µM, first compound 0.1 µM
[7] = second compound 1 µM, first compound 0.0316 µM
[8] = second compound 1 µM, first compound 0.1 µM
[9] = second compound 3.16 µM, first compound 0.0316 µM
[10] = second compound 3.16 µM, first compound 0.1 µM
[11] = second compound 10 µM, first compound 0.0316 µM
[12] = second compound 10 µM, first compound 0.1 µM
[13] = second compound 0.0316 µM, first compound 0.316 µM
[14] = second compound 0.0316 µM, first compound 1 µM
[15] = second compound 0.0316 µM, first compound 3.16 µM
[16] = second compound 0.0316 µM, first compound 10 µM
[17] = second compound 0.1 µM, first compound 0.316 µM
[18] = second compound 0.1 µM, first compound 1 µM
[19] = second compound 0.1 µM, first compound 3.16 µM
[20] = second compound 0.1 µM, first compound 10 µM
[21] = second compound 0.316 µM, first compound 0.316 µM
[22] = second compound 0.316 µM, first compound 1 µM
[23] = second compound 0.316 µM, first compound 3.16 µM
[24] = second compound 0.316 µM, first compound 10 µM
[25] = second compound 1 µM, first compound 0.316 µM
[26] = second compound 1 µM, first compound 1 µM
[27] = second compound 1 µM, first compound 3.16 µM
[28] = second compound 1 µM, first compound 10 µM
[29] = second compound 3.16 µM, first compound 0.316 µM
[30] = second compound 3.16 µM, first compound 1 µM
[31] = second compound 3.16 µM, first compound 3.16 µM
[32] = second compound 3.16 µM, first compound 10 µM
[33] = second compound 10 µM, first compound 0.316 µM
[34] = second compound 10 µM, first compound 1 µM
[35] = second compound 10 µM, first compound 3.16 µM
[36] = second compound 10 µM, first compound 10 µM
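Further: spheroids exposed to compounds for seven days before readout.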
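Wherever viability, T/C is given: 100% = DMSO vehicle control viability.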

CC[C@@]1(O)C(=O)OCc2c1cc1n(c2=O)Cc2cc3c(CN(C)C)c(O)ccc3nc2-1 + Cc1cccc(N(C)C(=O)C2C(O)CCN2c2nc(C)cc(C(F)(F)F)c2C#N)c1
IC50 (second compound 0.0316 µM): > 100 nM
IC50 (second compound 0.1 µM): > 100 nM
IC50 (second compound 0.316 µM): > 100 nM
IC50 (second compound 1 µM): > 100 nM
IC50 (second compound 3.16 µM): > 100 nM
IC50 (second compound 10 µM): > 100 nM
viability, T/C (second compound 0.0316 µM, first compound 0.000316 µM): 96.3%
viability, T/C (second compound 0.0316 µM, first compound 0.001 µM): 85.8%
viability, T/C (second compound 0.0316 µM, first compound 0.00316 µM): 96.1%
viability, T/C (second compound 0.0316 µM, first compound 0.01 µM): 79.3%
viability, T/C [1]: 57.5%
viability, T/C [2]: 54.1%
viability, T/C (second compound 0.1 µM, first compound 0.000316 µM): 101%
viability, T/C (second compound 0.1 µM, first compound 0.001 µM): 93.3%
viability, T/C (second compound 0.1 µM, first compound 0.00316 µM): 83.7%
viability, T/C (second compound 0.1 µM, first compound 0.01 µM): 81.5%
viability, T/C [3]: 58%
viability, T/C [4]: 61.4%
viability, T/C (second compound 0.316 µM, first compound 0.000316 µM): 102%
viability, T/C (second compound 0.316 µM, first compound 0.001 µM): 106%
viability, T/C (second compound 0.316 µM, first compound 0.00316 µM): 87.6%
viability, T/C (second compound 0.316 µM, first compound 0.01 µM): 68.7%
viability, T/C [5]: 64.6%
viability, T/C [6]: 64.4%
viability, T/C (second compound 1 µM, first compound 0.000316 µM): 99.5%
viability, T/C (second compound 1 µM, first compound 0.001 µM): 113%
viability, T/C (second compound 1 µM, first compound 0.00316 µM): 97.1%
viability, T/C (second compound 1 µM, first compound 0.01 µM): 83.1%
viability, T/C [7]: 63.8%
viability, T/C [8]: 62.8%
viability, T/C (second compound 3.16 µM, first compound 0.000316 µM): 100%
viability, T/C (second compound 3.16 µM, first compound 0.001 µM): 103%
viability, T/C (second compound 3.16 µM, first compound 0.00316 µM): 98%
viability, T/C (second compound 3.16 µM, first compound 0.01 µM): 88.4%
viability, T/C [9]: 66.9%
viability, T/C [10]: 61.8%
viability, T/C (second compound 10 µM, first compound 0.000316 µM): 112%
viability, T/C (second compound 10 µM, first compound 0.001 µM): 94.6%
viability, T/C (second compound 10 µM, first compound 0.00316 µM): 105%
viability, T/C (second compound 10 µM, first compound 0.01 µM): 79.5%
viability, T/C [11]: 67.7%
viability, T/C [12]: 71%

CNCc1ccc(-c2[nH]c3cc(F)cc4c3c2CCNC4=O)cc1 + COC1C(OC(N)=O)C(O)C(Oc2ccc3c(O)c(NC(=O)c4ccc(O)c(CC=C(C)C)c4)c(=O)oc3c2C)OC1(C)C
IC50 (second compound 0.0316 µM): > 10000 nM
IC50 (second compound 0.1 µM): > 10000 nM
IC50 (second compound 0.316 µM): > 10000 nM
IC50 (second compound 1 µM): > 10000 nM
IC50 (second compound 3.16 µM): > 10000 nM
IC50 (second compound 10 µM): > 10000 nM
viability, T/C [1]: 109%
viability, T/C [2]: 104%
viability, T/C [13]: 101%
viability, T/C [14]: 97.9%
viability, T/C [15]: 95.3%
viability, T/C [16]: 80.7%
viability, T/C [3]: 107%
viability, T/C [4]: 97.3%
viability, T/C [17]: 107%
viability, T/C [18]: 101%
viability, T/C [19]: 104%
viability, T/C [20]: 98.6%
viability, T/C [5]: 116%
viability, T/C [6]: 98.9%
viability, T/C [21]: 104%
viability, T/C [22]: 106%
viability, T/C [23]: 103%
viability, T/C [24]: 94%
viability, T/C [7]: 104%
viability, T/C [8]: 104%
viability, T/C [25]: 103%
viability, T/C [26]: 90.4%
viability, T/C [27]: 98%
viability, T/C [28]: 87.9%
viability, T/C [9]: 103%
viability, T/C [10]: 92.8%
viability, T/C [29]: 102%
viability, T/C [30]: 87.2%
viability, T/C [31]: 107%
viability, T/C [32]: 92.9%
viability, T/C [11]: 110%
viability, T/C [12]: 97.2%
viability, T/C [33]: 95.4%
viability, T/C [34]: 91.9%
viability, T/C [35]: 94.7%
viability, T/C [36]: 95.6%

CCc1cc2c(N3CCc4c(cc(Cn5ccnc5)cc4-c4cn(C)nc4C(F)(F)F)C3=O)cc(C)nc2c(OC)n1 + Nc1ccc(C#CCN(C(=O)Cc2ncc(C(F)(F)F)cc2C(F)(F)F)c2ccc(F)cc2)nn1
IC50 (second compound 0.0316 µM): > 10000 nM
IC50 (second compound 0.1 µM): > 10000 nM
IC50 (second compound 0.316 µM): > 10000 nM
IC50 (second compound 1 µM): > 10000 nM
IC50 (second compound 3.16 µM): > 10000 nM
IC50 (second compound 10 µM): 9750 nM
viability, T/C [1]: 89.2%
viability, T/C [2]: 92.2%
viability, T/C [13]: 92.8%
viability, T/C [14]: 90.4%
viability, T/C [15]: 76%
viability, T/C [16]: 52.3%
viability, T/C [3]: 85.5%
viability, T/C [4]: 96.9%
viability, T/C [17]: 95.5%
viability, T/C [18]: 90.6%
viability, T/C [19]: 79.5%
viability, T/C [20]: 64.5%
viability, T/C [5]: 105%
viability, T/C [6]: 93.1%
viability, T/C [21]: 98%
viability, T/C [22]: 88.4%
viability, T/C [23]: 73.9%
viability, T/C [24]: 57.4%
viability, T/C [7]: 91.5%
viability, T/C [8]: 93.3%
viability, T/C [25]: 94%
viability, T/C [26]: 88.9%
viability, T/C [27]: 71.6%
viability, T/C [28]: 61.8%
viability, T/C [9]: 106%
viability, T/C [10]: 92.4%
viability, T/C [29]: 96.4%
viability, T/C [30]: 97.5%
viability, T/C [31]: 78.6%
viability, T/C [32]: 67.8%
viability, T/C [11]: 106%
viability, T/C [12]: 118%
viability, T/C [33]: 115%
viability, T/C [34]: 101%
viability, T/C [35]: 90.5%
viability, T/C [36]: 48.8%

CC1COCCN1c1cc(C2(O)CC3CCC(C2)O3)c2cnn(-c3ccn[nH]3)c2n1 (stereo not drawn) + Cc1cccc(N(C)C(=O)C2C(O)CCN2c2nc(C)cc(C(F)(F)F)c2C#N)c1
IC50 (second compound 0.0316 µM): 156 nM
IC50 (second compound 0.1 µM): 173 nM
IC50 (second compound 0.316 µM): 188 nM
IC50 (second compound 1 µM): 125 nM
IC50 (second compound 3.16 µM): 173 nM
IC50 (second compound 10 µM): 215 nM
viability, T/C [1]: 76.6%
viability, T/C [2]: 58.4%
viability, T/C [13]: 35.7%
viability, T/C [14]: 33.7%
viability, T/C [15]: 23.9%
viability, T/C [16]: 23.9%
viability, T/C [3]: 80.4%
viability, T/C [4]: 54.9%
viability, T/C [17]: 41.2%
viability, T/C [18]: 37.9%
viability, T/C [19]: 26.8%
viability, T/C [20]: 23.2%
viability, T/C [5]: 71%
viability, T/C [6]: 61.2%
viability, T/C [21]: 38.6%
viability, T/C [22]: 35.8%
viability, T/C [23]: 24.2%
viability, T/C [24]: 24%
viability, T/C [7]: 78.6%
viability, T/C [8]: 48.8%
viability, T/C [25]: 41.7%
viability, T/C [26]: 33%
viability, T/C [27]: 27.9%
viability, T/C [28]: 23.2%
viability, T/C [9]: 79.3%
viability, T/C [10]: 54.9%
viability, T/C [29]: 44.9%
viability, T/C [30]: 31.6%
viability, T/C [31]: 26.4%
viability, T/C [32]: 23.4%
viability, T/C [11]: 81.5%
viability, T/C [12]: 60.3%
viability, T/C [33]: 39.3%
viability, T/C [34]: 42.4%
viability, T/C [35]: 31.4%
viability, T/C [36]: 23.9%
